Experimental data from article PMC6527222 (PLoS ONE, 2019).
Like-named read-outs stand apart in the source and are kept apart here.

Experiments:
[1] = molecular target: α1D-AR; conditions: read-out: Kd towards the α1D-AR; cited from earlier work
[2] = test system: JB6 P+ cells; assay: Anchorage-independent growth assay in soft agar (EGF-induced JB6 P+ colony formation); assay type: cell-based, mouse
Protocol: Ten ng/mL EGF was used to promote the anchorage-independent growth of JB6 cells. […] Plates were incubated at 37°C, 5% CO2 for 14 days. Colonies with greater than ten cells were counted manually under a microscope. […] Normalization allowed for comparison of data over a range of JB6 P+ cell cultures, passages, and experimental time for the shRNA studies, as well as control for variation in the EGF response, and importantly allowed for a direct comparison to all concentration-response experiments including the toxicity assays. […] All group sizes were determined via previous studies to provide statistically meaningful data. In the soft agar assays, key results were repeated with different JB6 P+ cells to confirm the results. Similarly, the shRNA studies were conducted with three independent concentration-response curves with different JB6 P+ cell stocks. […] For two sample comparisons a t-test was utilized, and when comparing multiple samples a One-, Two-, or Three-Factor ANOVA followed by Tukey-Kramer post hoc test was utilized depending on the data. For all tests, statistical difference was donated when p < 0.05. […] The I[…]*PSD is expressed in x-axis units (log [M]) as is an IC50 and it represents the first concentration where it is expected to observe a statistical decrease in the measured signal. […] Using the formula provided by GraphPad Prism or a straight line for the point-to-point graphs, the X-axis value for point Y was determined. The error is ascribed to this measurement via adding and subtracting the pooled standard deviation (PSD) to/from point Y generating point Y ± PSD. The two new points were then transformed to the X-axis units as was done for point Y creating an asymmetric error in sigmoidal plots. When the error was asymmetric, the larger error value was chosen to err on the conservative side. See S1 Fig for a pictoral explination of the method. The data is presented as I[…]*PSD ± error.

[3] = carvedilol cohort versus non-carvedilol cohort; cited from earlier work
[4] = test system: JB6 P+ cells; conditions: previous data, cited from earlier work
[5] = test system: A549, lung tumor, cells; conditions: cited from earlier work
[6] = test system: hairless mice (UV-induced skin thickening); assay: Eight dose UV exposure, bi-folded epidermal thickness in hairless wild type and β2-AR knockout mice; assay type: in vivo, mouse; conditions: 5 μM in 200 μL acetone topically every other day, 200 mJ/cm^2 UV, eight irradiations
Protocol: The Western University of Health Sciences’ Institutional Animal Care and Use Committee (WesternU IACUC) approved all animal studies prior to initiating any experiments. The animal studies were carried out under WesternU IACUC recommendations and guidelines, which follow NIH guidelines. Mice had access to water and food ad libitum and housed on a 12-hour light/dark cycle with 35% humidity. Homozygous β1-AR and β2-AR null mice (Adrb1^tm1Bkk Adrb2^tm1Bkk/J Stock Number 003810) were purchased from Jackson Laboratory (Bar Harbor, ME); the double knockout mice were characterized previously. The double knockout mice were bred with C57BL/6J from Jackson Lab to generate a heterozygous F1 generation. The F1 generation was bred together to generate the F2 generation of which 1/16th of the offspring were a β2-AR knockout mouse. SKH-1 mice purchased from Charles River (Wilmington, MA) were bred with the β2-AR knockout mice generating a second heterozygous F1 generation. The F1 generation was bred together to generate the F2 generation of which 1/16th of the offspring were a hairless β2-AR knockout mouse. The F2 generation was backcrossed with a new batch of SKH-1 from Charles River to generate mice more efficiently. The mice used in this study are 75% SKH-1 and 25% mixed background. Following experimentation, and to cull the unused mice in a colony, mice were euthanized via exposure to 32% Isoflurane followed by cervical dislocation to ensure euthanization prior to disposal.
The first two weeks were pretreatment and the second two weeks were during the UV irradiation procedure, but drugs were applied the day after UV exposure to avoid sunscreen effects. All groups involved with UV were irradiated with 200 mJ/cm^2 dose of UV every other day for a total of eight irradiations. Bi-folded epidermal thickness was measured using a digital caliper before drug treatment on non-radiation days. Three skin thickness measurements were taken along the left, middle, and right dorsal epidermal layer, and the mean thickness was recorded for each mouse.

[7] = test system: β2-AR; design: method as in as printed in each cell (43-46, 48-54, 56-58); conditions: as described in the references; ref (43-46, 48-54, 56-58); cited from earlier work
[8] = test system: JB6 P+ cells; assay: MTS cell proliferation assay; assay type: cell-based, mouse; conditions: two weeks
Protocol: Cell viability was determined by the addition of MTS reagent according to the manufacturer’s protocol (Promega, Madison, WI) and absorbance was measured using a Bio-Tek μQuant plate reader with KCJunior software. […] Normalization allowed for comparison of data over a range of JB6 P+ cell cultures, passages, and experimental time for the shRNA studies, as well as control for variation in the EGF response, and importantly allowed for a direct comparison to all concentration-response experiments including the toxicity assays. Data are expressed as mean ± SD and were analyzed using GraphPad Prism version 7.02 (La Jolla, CA). All group sizes were determined via previous studies to provide statistically meaningful data. In the soft agar assays, key results were repeated with different JB6 P+ cells to confirm the results. Similarly, the shRNA studies were conducted with three independent concentration-response curves with different JB6 P+ cell stocks. Statistical analysis of raw data was conducted with NCSS 2007 (Kaysville, UT). For two sample comparisons a t-test was utilized, and when comparing multiple samples a One-, Two-, or Three-Factor ANOVA followed by Tukey-Kramer post hoc test was utilized depending on the data. For all tests, statistical difference was donated when p < 0.05.

[9] = test system: JB6 P+ cells; assay: Soft agar assay with competitive adrenergic receptor antagonists; assay type: cell-based; conditions: Mus musculus, alone
Protocol: Ten ng/mL EGF was used to promote the anchorage-independent growth of JB6 cells. […] Plates were incubated at 37°C, 5% CO2 for 14 days. Colonies with greater than ten cells were counted manually under a microscope. Antagonists identified in our assays as ineffective at blocking EGF-mediated transformation of JB6 P+ cells yet displaying no or little toxicity were used as competitive antagonists towards carvedilol-mediated prevention of EGF-induced transformation of JB6 P+ cells.

In the case of `COc1ccccc1OCCNCC(O)COc1cccc2[nH]c3ccccc3c12` (stereo not shown) [Carvedilol], the Kd [1] is given as 1.2 nM, the “Soft Agar Assay Log IC50” value ([2]; 10 ng/mL EGF, 14 days, negative log value) is given as -6.61 ± 0.06 log [M] and the IC50 ([2]; Mus musculus, 336 h, 10 ng/mL EGF, 14 days, negative log value, read-out: Soft Agar Assay Log IC50 (converted)) is given as 251 nM. For the same compound, the Emax ([2]; Mus musculus, efficacy of inhibition of colony formation, reported if non-toxic) was 94.7 ± 4.31%, the “reduction in the incidence of all types of cancer” value [3] was 26% and the “effect on EGF-mediated transformation of JB6 P+ cells, words” value [4] was “completely prevents”. For the same compound, the IC50 ([4]; read-out: IC50, inhibition of EGF-mediated transformation) was 782 nM, the “reducing the growth of injected A549 cells in vivo, words” value [5] was “not effective” and the “effect on UV-induced skin thickening, words” value ([6]; wild type mice) was “statistical difference from the UV control on day 8 onward”. The “effect on UV-induced skin thickening, words” value ([6]; β2-AR knockout mice) was “greater effects in the knockout mice”, the “Pharmacological property at β2-AR” value [7] was “Biased agonist/ partial ERK agonist [43, 44]” and the “toxicity (cell viability), words” value ([8]; 100 μM) was “maximum toxicity”. The “toxicity (cell viability), words” value ([8]; concentrations lower than 10 μM) was “did not affect cell viability”, the IC50 ([9]; CGP 12177 experiment (Fig 5B)) was 331 nM and the IC50 ([9]; HEAT HCl experiment (Fig 5C)) was 275 nM. It also gave an IC50 ([9]; nadolol experiment (Fig 5A)) of 282 nM.
